Source: patent US20240216321A1, “FERMENTATIVELY-PRODUCED RETINOID CONTAINING COMPOSITIONS, AND THE METHDOS OF MAKING AND USING THE SAME” (DSM IP Assets B.V., priority 2022, published 2024)

Key:
[1] = tested on: Corynebacterium xerosis; test: Antimicrobial efficacy test in analogy to challenge test NF EN ISO11930; assay type: cell-based; details: initial inoculum count 100,000, 22° C.
Experimental: (§1) The antimicrobial efficacy of retinol and retinyl acetate having different cis/trans ratio has been assessed in analogy to the regulatory challenge test method (NF EN ISO11930). Thus, solutions of the respective retinol and retinyl acetate mixtures (reference samples and inventive mixtures with a purity of about 98%) were prepared in physiological serum with 0.85 wt.-% NaCl under sterile conditions. The presence of cis and trans-isomers in the retinoid component were calculated by reversed phase C4 HPLC analysis, with the total cis-isomer content in the retinoid component, relative to the total weight of trans-isomers in the retinoid component detected, is reported in Table 4 below along the row labelled “cis/trans ratio”. Also reported for each sample was the specific retinoid used as the retinoid component (either retinyl acetate or retinol for all samples). The solutions of the active(s) were then deposed in 96-deep well plates (1.6 ml/well) at a concentration as specified by wt. % in Table 4 below. The wells were contaminated with Cutibacterium acnes, Corynebacterium xerosis, and Malassezia furfur, respectively, to obtain the initial contamination. The initial contamination count, which is listed as “initial inoculum count” for each test as indicated in Tale 4 below, was determined to be 100,000. After contamination, each well was thoroughly mixed to ensure a homogeneous distribution of the microbes. Then each plate was incubated at 22° C. for 24 h. The counting of the (remaining) population was carried out 24 hours after contamination, as indicated below in Table 4 by the rows labelled “24 hr”. The change in count from the initial inoculum count to the 24-hour count (in terms of percentage) is reflected in the Table below by the rows labelled “A R”.

[2] = tested on: Cutibacterium acnes; test: as above; assay type: cell-based; details: for 24 hr count (remaining population) / Δ R (change from initial inoculum count to 24-hour count): initial inoculum count 100,000, 22° C.; for reduction of Cutibacterium acnes: stated as reduction
Experimental: as §1

[3] = tested on: Malassezia furfur; test: as above; assay type: cell-based; details: concentration 0.25%, initial inoculum count 100,000, 22° C.
Experimental: as §1

[4] = assay type: physicochemical
Experimental: Retinoid quantification: Analysis of retinoids were carried out with a C4 reverse phase retinoid method (see below). The addition of all added intermediates gives the total amount of retinoids.
C4 reverse phase chromatography. For exact determination of discrete retinoids, the long run reverse phase system was used. Analytes were separated using the Agilent 1290 instrument with YMC Pro C4, 150×3.0 mm, 3 um column (YMC America, Allentown PA) stationary phase, and a 5 μl injection loop volume and column and sample tray controlled at 23° C. with gradients described in Table B. Analytes were detected at 210, 230 nm and 325 nm and the peak's identity was verified with LCMS. The analytes were separated as discrete peaks that were assigned according to the table below. […]
To determine oxidative stability of examples 1-5, each sample, the preparation of which is described above, was placed under ambient conditions (20° C. and 50% relative humidity preferred) in its own small brown glass vial, blanketed with argon, and put into an oven preheated to 105° C. Thereafter, the samples remained in the oven for 3 hours. After three hours the samples were taken out of the oven and analyzed via the same method(s) utilized to determine “initial” values as reported in Table 1 above. The values for each component were measured after the thermal stress test and compared to the values determined prior to the test. For clarity, example 1 indicated a total retinoid component (see row in Table 1 above labelled “all retinyl acetate (all species)”) prior to the thermal stress test of 90.53%; the change indicated in Table 2 of −1.31% below signifies that the total retinoid component determined after the thermal stress test was 89.22% (by weight relative to the entire sample weight).

[5] = 105° C. for 3 hours, blanketed with argon, change vs value before test

In the case of `CC(=O)OC/C=C(C)/C=C/C=C(C)/C=C/C1=C(C)CCCC1(C)C` [Ex. 9, Retinyl acetate], the “24 hr count (remaining population)” value ([1]; concentration 0.1%) is reported as 70,000, the “Δ R (change from initial inoculum count to 24-hour count)” value ([1]; concentration 0.1%) is reported as −30% and the “24 hr count (remaining population)” value ([1]; concentration 0.25%) is reported as 10,000. The “Δ R (change from initial inoculum count to 24-hour count)” value ([1]; concentration 0.25%) was −90%, the “24 hr count (remaining population)” value ([2]; concentration 0.1%) was 70,000 and the “Δ R (change from initial inoculum count to 24-hour count)” value ([2]; concentration 0.1%) was −30%. The “reduction of Cutibacterium acnes” value ([2]; retinyl acetate mixtures) was “about 30%”.

In the case of `CC1=C(/C=C/C(C)=C/C=C/C(C)=C/CO)C(C)(C)CCC1` [Ex. 11, Retinol], the “24 hr count (remaining population)” value ([2]; concentration 0.25%) is reported as 700, the “Δ R (change from initial inoculum count to 24-hour count)” value ([2]; concentration 0.25%) is reported as −99.3% and the “reduction of Cutibacterium acnes” value ([2]; retinol compositions) is reported as 99.3%. For the same compound, the “24 hr count (remaining population)” value [3] was 40,000 and the “Δ R (change from initial inoculum count to 24-hour count)” value [3] was −60%.

With `CC(=O)OC/C=C(C)/C=C/C=C(C)/C=C/C1=C(C)CCCC1(C)C` [Ex. 8, Retinyl acetate] the “24 hr count (remaining population)” value ([1]; concentration 0.1%) was 70,000, the “Δ R (change from initial inoculum count to 24-hour count)” value ([1]; concentration 0.1%) was −30% and the “24 hr count (remaining population)” value ([1]; concentration 0.25%) was 37,000. For the same compound, the “Δ R (change from initial inoculum count to 24-hour count)” value ([1]; concentration 0.25%) was −63%, the “24 hr count (remaining population)” value ([2]; concentration 0.1%) was 70,000 and the “Δ R (change from initial inoculum count to 24-hour count)” value ([2]; concentration 0.1%) was −30%. The “reduction of Cutibacterium acnes” value ([2]; retinyl acetate mixtures) was “about 30%”.

For `CC(=O)OC/C=C(C)/C=C/C=C(C)/C=C/C1=C(C)CCCC1(C)C` [Ex. 7, Retinyl acetate], the “24 hr count (remaining population)” value ([1]; concentration 0.1%) was 370,000, the “Δ R (change from initial inoculum count to 24-hour count)” value ([1]; concentration 0.1%) was 270% and the “24 hr count (remaining population)” value ([1]; concentration 0.25%) was 40,000. The “Δ R (change from initial inoculum count to 24-hour count)” value ([1]; concentration 0.25%) was −60%, the “24 hr count (remaining population)” value ([2]; concentration 0.1%) was 370,000 and the “Δ R (change from initial inoculum count to 24-hour count)” value ([2]; concentration 0.1%) was 270%.

In the case of `CC1=C(/C=C/C(C)=C/C=C/C(C)=C/CO)C(C)(C)CCC1` [Ex. 10, Retinol], the “24 hr count (remaining population)” value ([2]; concentration 0.25%) is reported as 1,000, the “Δ R (change from initial inoculum count to 24-hour count)” value ([2]; concentration 0.25%) is reported as −99% and the “24 hr count (remaining population)” value [3] is reported as 100,000. The “Δ R (change from initial inoculum count to 24-hour count)” value [3] was 0%.

For `CC(=O)OC/C=C(C)/C=C/C=C(C)/C=C/C1=C(C)CCCC1(C)C` [Example 5, retinyl acetate], the “9Z-retinal, % change” value [4, 5] was 0.00%, the “Dihydro-actinidiole, % change” value [4, 5] was −0.01% and the “Dihydro-retinol, % change” value [4, 5] was 0.00%. For the same compound, the “E-Retinal, % change” value [4, 5] was −0.01%, the “E-retinol, % change” value [4, 5] was −0.01% and the “Retinyl acetate (all species), % change” value [4, 5] was −5.50%. For the same compound, the “Z-retinol, % change” value [4, 5] was −0.04%, the “cis-retinyl acetate, % change” value [4, 5] was −0.22% and the “Ethanol, % change” value ([4]; 105° C. for 3 hours, blanketed with argon, change vs value before test (wt. % of entire composition)) was 0.00%. The “reduction in retinyl acetate (loss of retinyl acetate content) after heat stability test” value ([4]; 3 h) was 5.50%.
